{"source": "patent US11957665B1", "about": "“Pharmaceutical composition for preventing or treating alopecia areata acting as a functional antagonist for S1PR1 and S1PR4” (NEXTGEN BIOSCIENCE CO., LTD., priority 2022, dated 2024)", "key": {"[1]": {"test_system": "T cells, CD4 T cells, CD8 T cells", "assay": "Inhibitory effect of NXC736 on mouse immune cells (flow cytometry of lymphocytes in peripheral blood and bone marrow)", "type": "in vivo, C57BL/6 mice", "details": "3 mg/kg oral once", "protocol": "To determine whether NXC736, which acts on the S1P receptor, also has an effect on lymphocyte reduction, the effect of NXC736 on immune cells was evaluated. After oral administration of NXC736 once at 3 mg/kg/day to C57BL/6 mice (Daehan BioLink (DBL), 4 mice in the control group and 18 mice in the test group), the change in lymphocytes in peripheral blood (PB), bone marrow (BM) was measured by classifying into T cells (using anti-mouse CD3ε-PE/cyanine7 antibody), CD4 T cells (using anti-mouse CD4-FITC antibody), and CD8 T cells (using anti-mouse CD8a-PerCP antibody). Specifically, measurements were made using a flow cytometer (FC500, Beckman coulter) at 0, 4, 8, 12, 24, and 36 hours after administration of the test substance, the analysis was performed using FlowJo™ V10 (Flowjo, LLC), and the numbers of T cells, CD4 T cells, and CD8 T cells were expressed as % of control based on time 0."}, "[2]": {"test_system": "T cells, CD4 T cells, CD8 T cells", "assay": "Inhibitory effect of NXC736 on rat immune cells (flow cytometry of lymphocytes in peripheral blood and bone marrow)", "type": "in vivo, SD rats", "details": "10 mg/kg oral once, PB", "protocol": "To evaluate the effect of NXC736 on rat immune cells, NXC736 was administered orally once at 10 mg/kg/day to SD rats (Daehan BioLink (DBL), 3 control groups, and 15 test groups), and then measurements were performed by classifying into T cells, CD4 T cells, and CD8 T cells in peripheral bloodstream (PB) and bone marrow (BM) using the same antibodies as in Experimental Example 1. Specifically, measurements were made using a flow cytometer (FC500, Beckman coulter) at 0, 4, 8, 12, 24, 36, and 48 hours after administration of the test substance, the analysis was performed using FlowJo™ V10 (Flowjo, LLC), and the numbers of T cells, CD4 T cells, and CD8 T cells were expressed as % of control based on time 0."}, "[3]": {"test_system": "alopecia areata mouse model C3H/HeJ", "assay": "Efficacy in suppressing alopecia areata in C3H/HeJ alopecia areata mouse model", "type": "in vivo, C3H/HeJ mice", "protocol": "The effectiveness of NXC736 for alopecia areata was evaluated using the alopecia areata mouse model C3H/HeJ (Jackson Lab, Saeron Bio). […] Conditions for the animal breeding room include a temperature of 23±3° C., relative humidity of 50±10%, and day and night maintained at 12-hour intervals, and experimental animals were raised in isolation breeding boxes (ThreeShine), and fed with food and drinking water for experimental animals ad libitum.\nMice were divided into two groups: the control group (sterilized distilled water administration group) and the NXC736 administration experimental group, five C3H/HeJ mice were randomly assigned per group, and from the time point lymph node cells were proliferated and injected into C3H/HeJ mice aged 10 to 16 weeks where no alopecia was induced, NXC736 was orally administered at 30 mg/kg for the NXC736 administration group and the same volume of sterilized distilled water was orally administered for the control group for 12 weeks once a day at the same time, respectively, and then the area of alopecia areata (AA) lesion area and disease free ratio were measured at intervals of 2 weeks.\nThe alopecia areata lesion area was measured using the Image J program (Version 1.44p) after taking a photograph.\nThe disease free ratio was defined as the proportion of mice administered the drug and not showing alopecia symptoms at a specified time point."}, "beagle dogs": {"test_system": "beagle dogs", "assay": "Effect on the cardiovascular system (heart rate, general symptoms) in beagle dogs", "type": "in vivo", "protocol": "NXC736 was orally administered to four unanesthetized and unrestrained male beagle dogs (ORIENTBIO Inc., Republic of Korea) implanted with remote transmitters. Afterwards, the heart rate of four beagle dogs was measured to evaluate the effect of NXC736 on the cardiovascular system, and the occurrence of abnormal symptoms was visually checked.\nIn this experiment, 4 beagle dogs were administered with 0.5% MC aqueous solution, which is an excipient, as a control substance, and the heart rate was measured, and after 1 week, NXC736 was administered at 12.5 mg/kg and the heart rate was measured, after 1 week, NXC736 was administered at 25 mg/kg and the heart rate was measured, and after 1 week, NXC736 was administered at 50 mg/kg and the heart rate was measured.\nThe heart rate of beagle dogs was specifically measured at 0 hours before administration of the test substance, and 0.5 hours, 1 hour, 2 hours, 3 hours, 4 hours, 6 hours, 8 hours, 12 hours, and 24 hours after administration of the test substance."}, "[4]": {"target": "T1, hERG potassium ion channel (Homo sapiens, UniProt Q12809)", "T1 sequence (Q12809 whole entry)": "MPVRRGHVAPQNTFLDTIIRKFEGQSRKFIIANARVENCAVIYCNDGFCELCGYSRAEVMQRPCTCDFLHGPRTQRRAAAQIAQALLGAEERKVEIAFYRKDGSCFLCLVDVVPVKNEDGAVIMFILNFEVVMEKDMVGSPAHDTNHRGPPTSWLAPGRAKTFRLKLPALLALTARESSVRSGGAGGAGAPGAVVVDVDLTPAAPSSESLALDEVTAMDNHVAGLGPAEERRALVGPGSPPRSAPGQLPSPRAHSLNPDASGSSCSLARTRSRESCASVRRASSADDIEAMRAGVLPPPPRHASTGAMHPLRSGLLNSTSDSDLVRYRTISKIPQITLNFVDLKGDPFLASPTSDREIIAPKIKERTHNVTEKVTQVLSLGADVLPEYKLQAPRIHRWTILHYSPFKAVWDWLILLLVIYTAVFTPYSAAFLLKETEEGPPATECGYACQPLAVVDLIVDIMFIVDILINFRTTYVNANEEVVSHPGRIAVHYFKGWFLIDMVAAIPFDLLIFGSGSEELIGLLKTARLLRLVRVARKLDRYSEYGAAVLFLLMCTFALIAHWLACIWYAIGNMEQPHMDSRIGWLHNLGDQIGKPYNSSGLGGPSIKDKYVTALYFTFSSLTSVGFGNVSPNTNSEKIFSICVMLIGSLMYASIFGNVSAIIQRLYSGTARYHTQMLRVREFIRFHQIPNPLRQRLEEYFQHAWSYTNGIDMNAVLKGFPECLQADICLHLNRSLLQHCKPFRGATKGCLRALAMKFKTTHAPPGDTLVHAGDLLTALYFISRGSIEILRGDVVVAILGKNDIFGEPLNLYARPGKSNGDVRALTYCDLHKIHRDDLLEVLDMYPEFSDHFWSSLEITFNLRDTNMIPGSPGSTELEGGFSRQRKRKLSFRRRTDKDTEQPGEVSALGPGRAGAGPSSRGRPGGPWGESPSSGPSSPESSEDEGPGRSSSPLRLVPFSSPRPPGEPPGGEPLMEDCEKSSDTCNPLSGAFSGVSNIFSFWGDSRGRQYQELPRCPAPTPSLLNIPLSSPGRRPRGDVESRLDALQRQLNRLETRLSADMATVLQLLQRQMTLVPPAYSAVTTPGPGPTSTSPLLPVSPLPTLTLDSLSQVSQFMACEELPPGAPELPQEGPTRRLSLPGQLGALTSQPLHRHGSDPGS", "assay": "cell-based"}, "[5]": {"target": "T1, hERG potassium ion channel", "assay": "Effect on hERG channel currents in HEK-293 cells overexpressing the hERG gene"}}, "data": [{"molecule": "CCCCCCCCCCn1cc(CCC(N)(CO)CO)nn1", "note": "[NXC736, 2-amino-2-(2-(1-decyl-1H-1,2,3-triazol-4-yl)ethyl)propane-1,3-diol]", "values": [{"measurement": "time until which the decrease of T cells in PB was maintained", "setting": "[1]", "value": "≤ 12", "unit": "h"}, {"measurement": "T cells in PB after recovery (% of control)", "setting": "[1]; at 36 hours", "value": 88.9, "unit": "%"}, {"measurement": "time for which the immunosuppressive effect was maintained", "setting": "[2]", "value": "up to 24 hours"}, {"measurement": "time to observe 100% alopecia areata (disease free ratio)", "setting": "[3]; 30 mg/kg oral once a day", "value": "up to 84 days"}, {"measurement": "alopecia areata (AA) lesion area", "setting": "[3]; 30 mg/kg oral once a day for 12 weeks", "value": "approximately 10%"}, {"measurement": "heart rate", "setting": "beagle dogs; oral doses of 12.5, 25 and 50 mg/kg, 0-24 hours", "value": "no change in heart rate"}, {"measurement": "general symptoms, naked eye", "setting": "beagle dogs; oral doses of 12.5, 25 or 50 mg/kg", "value": "no abnormal symptoms were observed"}, {"measurement": "IC50", "setting": "[4]", "value": 12.9, "unit": "µM"}, {"measurement": "hERG potassium channel activity, conclusion", "setting": "[5]", "value": "does not inhibit hERG potassium channel activity"}]}]}
